In PubChem BioAssay (NCI):
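96-well plates; 48 h exposure; 5 concentrations. Endpoints by linear interpolation between flanking doses. Not reached: highest tested concentration assigned. TGI denotes the concentration required for complete inhibition of growth.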

Columns and labels:
Assay in all cases: NCI tumour cell line growth inhibition, 48 h
U251 CNS = system: U251 CNS
EKVX NSCLC = system: EKVX NSCLC
MDA-MB-435 = system: MDA-MB-435
UACC-62 melanoma = system: UACC-62 melanoma
BT-549 breast = system: BT-549 breast
NCI/ADR-RES ovarian = system: NCI/ADR-RES ovarian
OVCAR-4 ovarian = system: OVCAR-4 ovarian
MDA-MB-231 breast = system: MDA-MB-231 breast
MDA-N = system: MDA-N
A498 renal = system: A498 renal
HL-60(TB) leukemia = system: HL-60(TB) leukemia
SNB-19 CNS = system: SNB-19 CNS
HOP-92 NSCLC = system: HOP-92 NSCLC
CCRF-CEM leukemia = system: CCRF-CEM leukemia
HS 578T breast = system: HS 578T breast
DU-145 prostate = system: DU-145 prostate
OVCAR-3 ovarian = system: OVCAR-3 ovarian
NCI-H460 lung = system: NCI-H460 lung
SK-OV-3 ovarian = system: SK-OV-3 ovarian
UO-31 renal = system: UO-31 renal
MCF7 breast = system: MCF7 breast
HT29 colon = system: HT29 colon
OVCAR-5 ovarian = system: OVCAR-5 ovarian
OVCAR-8 ovarian = system: OVCAR-8 ovarian
NCI-H226 lung = system: NCI-H226 lung
LOX IMVI melanoma = system: LOX IMVI melanoma
786-0 renal = system: 786-0 renal
HCT-116 colon = system: HCT-116 colon
A549 NSCLC = system: A549 NSCLC
SF-268 CNS = system: SF-268 CNS
SF-539 CNS = system: SF-539 CNS
SK-MEL-28 melanoma = system: SK-MEL-28 melanoma
RPMI-8226 leukemia = system: RPMI-8226 leukemia
NCI-H23 lung = system: NCI-H23 lung
RXF 393 renal = system: RXF 393 renal
T-47D breast = system: T-47D breast
SR leukemia = system: SR leukemia
SW-620 colon = system: SW-620 colon
COLO 205 colon = system: COLO 205 colon
K-562 leukemia = system: K-562 leukemia
TK-10 renal = system: TK-10 renal
KM12 colon = system: KM12 colon
PC-3 prostate = system: PC-3 prostate
CAKI-1 renal = system: CAKI-1 renal
M14 melanoma = system: M14 melanoma
SNB-75 CNS = system: SNB-75 CNS
IGROV1 ovarian = system: IGROV1 ovarian
MALME-3M melanoma = system: MALME-3M melanoma
HOP-62 NSCLC = system: HOP-62 NSCLC
UACC-257 melanoma = system: UACC-257 melanoma
SN12C renal = system: SN12C renal
HCT-15 colon = system: HCT-15 colon
MOLT-4 leukemia = system: MOLT-4 leukemia
SF-295 CNS = system: SF-295 CNS
NCI-H522 lung = system: NCI-H522 lung
HCC-2998 colon = system: HCC-2998 colon
SK-MEL-2 melanoma = system: SK-MEL-2 melanoma
ACHN renal = system: ACHN renal
SK-MEL-5 melanoma = system: SK-MEL-5 melanoma

Measured: TGI

CC1CN(c2cc3c(cc2F)c(=O)c(C(=O)O)cn3-c2ccc(F)cn2)CC(C)N1 (stereo not drawn)
> 100 µM: U251 CNS | EKVX NSCLC | MDA-MB-435 | UACC-62 melanoma | BT-549 breast | NCI/ADR-RES ovarian | OVCAR-4 ovarian | MDA-MB-231 breast | MDA-N | A498 renal | HL-60(TB) leukemia | SNB-19 CNS | HOP-92 NSCLC | CCRF-CEM leukemia | HS 578T breast | DU-145 prostate | OVCAR-3 ovarian | NCI-H460 lung | SK-OV-3 ovarian | UO-31 renal | MCF7 breast | HT29 colon | OVCAR-5 ovarian | OVCAR-8 ovarian | NCI-H226 lung | LOX IMVI melanoma | 786-0 renal | HCT-116 colon | A549 NSCLC | SF-268 CNS | SF-539 CNS | SK-MEL-28 melanoma | RPMI-8226 leukemia | NCI-H23 lung | RXF 393 renal | T-47D breast | SR leukemia | SW-620 colon | COLO 205 colon | K-562 leukemia | TK-10 renal | KM12 colon | PC-3 prostate | CAKI-1 renal | M14 melanoma | SNB-75 CNS | IGROV1 ovarian | MALME-3M melanoma | HOP-62 NSCLC | UACC-257 melanoma | SN12C renal | HCT-15 colon | MOLT-4 leukemia | SF-295 CNS | NCI-H522 lung

COc1cc2c(cc1O)C1(Cc3ccc4c(c3C1=O)OCO4)N(C)CC2 (stereo not drawn)
> 100 µM: U251 CNS | EKVX NSCLC | MDA-MB-435 | UACC-62 melanoma | BT-549 breast | NCI/ADR-RES ovarian | OVCAR-4 ovarian | MDA-MB-231 breast | MDA-N | A498 renal | HL-60(TB) leukemia | SNB-19 CNS | HOP-92 NSCLC | CCRF-CEM leukemia | HS 578T breast | DU-145 prostate | OVCAR-3 ovarian | NCI-H460 lung | SK-OV-3 ovarian | UO-31 renal | MCF7 breast | HT29 colon | OVCAR-5 ovarian | HCC-2998 colon | OVCAR-8 ovarian | NCI-H226 lung | 786-0 renal | HCT-116 colon | A549 NSCLC | SF-268 CNS | SF-539 CNS | SK-MEL-28 melanoma | RPMI-8226 leukemia | NCI-H23 lung | SK-MEL-2 melanoma | RXF 393 renal | T-47D breast | SR leukemia | SW-620 colon | COLO 205 colon | K-562 leukemia | ACHN renal | TK-10 renal | KM12 colon | PC-3 prostate | CAKI-1 renal | M14 melanoma | SNB-75 CNS | SK-MEL-5 melanoma | IGROV1 ovarian | MALME-3M melanoma | HOP-62 NSCLC | UACC-257 melanoma | SN12C renal | HCT-15 colon | MOLT-4 leukemia | SF-295 CNS | NCI-H522 lung
